Experiments:
Crimson seedless grapes = assay: grape coloring field study, ABA with or without Brij 98; assay type: in vivo; conditions: for Harvest yield (%): harvest at 64 days after treatment, yield percent with sufficient color
Protocol: A grape coloring field study was conducted at Caruthers, Calif. ABA alone at 100 or 200 ppm or its combination with 0.05% Brij 98 was foliar applied to Crimson seedless grapes. Number of clusters with color was counted on a weekly basis, beginning at 21 days after treatment. Percentage of clusters with color was calculated. Grape yield was harvested at 64 days after treatment.
(§1) All experiments were conducted using a randomized complete block experimental design. Data were analyzed by analysis of variance. Duncan's new multiple range tests at α-005 were used for mean separations.
The effect of 0.05% Brij 98 on ABA (100 or 200 ppm) performance in grape coloration was examined in the field (Table 12). Addition of Brij 98 increased the percent of clusters with color for ABA at 100 or 200 ppm after application and increased the harvest yield percent with sufficient color. Treatment with 200 ppm ABA had more colored clusters and yield.

[1] = tested on: tomato leaf transpiration; assay: tomato leaf transpiration inhibition bioassay; assay type: in vivo, Tomato (variety: Rutgers)
From the text: The compositions of the present invention improve ABA effectiveness by incorporating a surfactant, and optionally a nitrogen-containing fertilizer together with an effective amount of the plant growth regulator abscisic acid (S-ABA; ABA; S-(+)-abscisic acid; +-ABA, (+)-(S)-cis, trans-abscisic acid, (+)-(S)-cis,trans-ABA; S-ABA; (S)-5-(1-hydroxy-2,6,6,-trimethyl-4-oxo-2-cyclohexen-1-yl)-3-methyl-(2Z,4E)-pentadienoic acid; CAS registry no, [21293-29-8]). ABA effectiveness may be measured experimentally by quantifying the inhibition of transpiration in tomato leaves. This is a reliable laboratory bioassay of the level of ABA activity.
Preparation of plant specimens for use in the treatment studies of the examples described was carried out as follows. Tomato (variety: Rutgers) seeds were sown in an 18-cell flat filled with Promix PGX (available from Premier Horticulture Inc. Quakertown, Pa.) and grown for 3 weeks to allow for germination and initial growth. Plants were then transplanted into pots (18 cm in diameter and 18 cm in height), filled with Promix BX (available from Premier Horticulture Inc. Quakertown, Pa.), and grown for one or two more weeks before treatment, depending on temperature and available light. Plants received daily irrigation and weekly fertilizer (1 g/L all purpose fertilizer 20-20-20, available from The Scotts Company, Marysville, Ohio).
All treatment solutions were prepared with distilled water, ABA (95% active ingredient) is available from Lomon BioTechnology Co., Ltd. (Shichuan, China). […]
Unless otherwise specified, when a surfactant was employed, it was incorporated into the 250-ppm ABA treatment solution at a concentration of 0.05% to 0.5% (v/v).
ABA solutions and blank treatments were applied to the aerial parts of tomato plant leaves at the rate of 20 mL per 6 plants. Plants were then placed in a transparent chamber with humidity controlled within the range of 40 to 60% relative humidity. Leaf transpiration rates were measured at 1, 2 and 3 days; at 1, 2, 3 and 4 days; or at 1, 2, 3, 4 and 7 days after treatment. Measurements were conducted using a LI-1600 Steady State Porameter (LI-Cor, Lincoln, Nebr.). Each day the transpiration rate of the plants of each treatment group was normalized to the percentage of the transpiration rate of untreated plants (plants sprayed with water only) in order to control for day-to-day variability caused by changes of environmental conditions such as light intensity and temperature. In some cases, data of each plant was averaged over a 3-day period to balance the short term and long-term effect of ABA on tomato leaf transpiration as well as to control for experimental variability.
as §1

## (S)-5-(1-hydroxy-2,6,6,-trimethyl-4-oxo-2-cyclohexen-1-yl)-3-methyl-(2Z,4E)-pentadienoic acid [ABA]
Crimson seedless grapes; 100 ppm ABA foliar applied, 21 days after application
  % clusters with color: 1.8%
Crimson seedless grapes; 100 ppm ABA foliar applied, 27 days after application
  % clusters with color: 2.7%
Crimson seedless grapes; 100 ppm ABA foliar applied, 35 days after application
  % clusters with color: 5.7%
Crimson seedless grapes; 100 ppm ABA foliar applied, 43 days after application
  % clusters with color: 7.5%
Crimson seedless grapes; 100 ppm ABA foliar applied, 50 days after application
  % clusters with color: 9.4%
Crimson seedless grapes; 100 ppm ABA foliar applied, 56 days after application
  % clusters with color: 26.1%
Crimson seedless grapes; 100 ppm ABA foliar applied, 62 days after application
  % clusters with color: 26.2%
Crimson seedless grapes; 100 ppm ABA foliar applied, 64 days after application
  % clusters with color: 31.2%
Crimson seedless grapes; 100 ppm ABA foliar applied
  Harvest yield (%): 25.5%
Crimson seedless grapes; 200 ppm ABA foliar applied, 21 days after application
  % clusters with color: 7.0%
Crimson seedless grapes; 200 ppm ABA foliar applied, 27 days after application
  % clusters with color: 10.7%
Crimson seedless grapes; 200 ppm ABA foliar applied, 35 days after application
  % clusters with color: 17.3%
Crimson seedless grapes; 200 ppm ABA foliar applied, 43 days after application
  % clusters with color: 20.5%
Crimson seedless grapes; 200 ppm ABA foliar applied, 50 days after application
  % clusters with color: 22.7%
Crimson seedless grapes; 200 ppm ABA foliar applied, 56 days after application
  % clusters with color: 47.9%
Crimson seedless grapes; 200 ppm ABA foliar applied, 62 days after application
  % clusters with color: 50.3%
Crimson seedless grapes; 200 ppm ABA foliar applied, 64 days after application
  % clusters with color: 56.4%
Crimson seedless grapes; 200 ppm ABA foliar applied
  Harvest yield (%): 49.1%
[1]; 125 ppm ABA, average of first 3 days after treatment
  Transpiration rate (% of control): 96 % of control
[1]; 250 ppm ABA or ABA ammonium salt, 1 day after treatment (Table 7)
  Transpiration rate (% of control): 73 % of control
[1]; 250 ppm ABA or ABA ammonium salt, 2 days after treatment (Table 7)
  Transpiration rate (% of control): 76 % of control
[1]; 250 ppm ABA or ABA ammonium salt, 3 days after treatment (Table 7)
  Transpiration rate (% of control): 94 % of control
[1]; 250 ppm ABA or ABA ammonium salt, average of days 1-3 after treatment (Table 7)
  Transpiration rate (% of control), Average: 81 % of control
[1]; 250 ppm ABA or salt at rate equivalent to 250 ppm ABA, 1 day after treatment (Table 8)
  Transpiration rate (% of control): 71 % of control
[1]; 250 ppm ABA or salt at rate equivalent to 250 ppm ABA, 2 days after treatment (Table 8)
  Transpiration rate (% of control): 75 % of control
[1]; 250 ppm ABA or salt at rate equivalent to 250 ppm ABA, 3 days after treatment (Table 8)
  Transpiration rate (% of control): 88 % of control
[1]; 250 ppm ABA or salt at rate equivalent to 250 ppm ABA, average of days 1-3 (Table 8)
  Transpiration rate (% of control), Average: 78 % of control
[1]; 250 ppm ABA or salt at rates equivalent to 250 ppm ABA, 1 day after treatment (Table 10)
  Transpiration rate (% of control): 59 % of control
[1]; 250 ppm ABA or salt at rates equivalent to 250 ppm ABA, 2 days after treatment (Table 10)
  Transpiration rate (% of control): 71 % of control
[1]; 250 ppm ABA or salt at rates equivalent to 250 ppm ABA, 3 days after treatment (Table 10)
  Transpiration rate (% of control): 77 % of control
[1]; 250 ppm ABA or salt at rates equivalent to 250 ppm ABA, average of days 1-3 (Table 10)
  Transpiration rate (% of control), Average: 69 % of control
[1]; 250 ppm ABA, 1 day after treatment (Table 2)
  Transpiration rate (% of control): 76 % of control
[1]; 250 ppm ABA, 1 day after treatment (Table 5)
  Transpiration rate (% of control): 82 % of control
[1]; 250 ppm ABA, 1 day after treatment (Table 6)
  Transpiration rate (% of control): 71 % of control
[1]; 250 ppm ABA, 1 day after treatment (Table 11)
  Transpiration rate (% of control): 83 % of control
[1]; 250 ppm ABA, 1 day after treatment (Table 13)
  Transpiration rate (% of control): 74 % of control
[1]; 250 ppm ABA, 1 day after treatment (Table 14)
  Transpiration rate (% of control): 74 % of control
[1]; 250 ppm ABA, 2 days after treatment (Table 2)
  Transpiration rate (% of control): 99 % of control
[1]; 250 ppm ABA, 2 days after treatment (Table 5)
  Transpiration rate (% of control): 91 % of control
[1]; 250 ppm ABA, 2 days after treatment (Table 6)
  Transpiration rate (% of control): 84 % of control
[1]; 250 ppm ABA, 2 days after treatment (Table 11)
  Transpiration rate (% of control): 85 % of control
[1]; 250 ppm ABA, 2 days after treatment (Table 14)
  Transpiration rate (% of control): 82 % of control
[1]; 250 ppm ABA, 3 days after treatment (Table 2)
  Transpiration rate (% of control): 93 % of control
[1]; 250 ppm ABA, 3 days after treatment (Table 5)
  Transpiration rate (% of control): 90 % of control
[1]; 250 ppm ABA, 3 days after treatment (Table 6)
  Transpiration rate (% of control): 86 % of control
[1]; 250 ppm ABA, 3 days after treatment (Table 11)
  Transpiration rate (% of control): 94 % of control
[1]; 250 ppm ABA, 3 days after treatment (Table 13)
  Transpiration rate (% of control): 95 % of control
[1]; 250 ppm ABA, 3 days after treatment (Table 14)
  Transpiration rate (% of control): 95 % of control
[1]; 250 ppm ABA, 4 days after treatment (Table 5)
  Transpiration rate (% of control): 100 % of control
[1]; 250 ppm ABA, 4 days after treatment (Table 6)
  Transpiration rate (% of control): 90 % of control
[1]; 250 ppm ABA, 4 days after treatment (Table 13)
  Transpiration rate (% of control): 100 % of control
[1]; 250 ppm ABA, 4 days after treatment (Table 14)
  Transpiration rate (% of control): 100 % of control
[1]; 250 ppm ABA, average of days 1-3 (Table 11)
  Transpiration rate (% of control), Average: 87 % of control
[1]; 250 ppm ABA, average of first 3 days after treatment (Table 1)
  Transpiration rate (% of control): 88 % of control
[1]; 250 ppm ABA, average of first 3 days after treatment (Table 3)
  Transpiration rate (% of control): 83 % of control
[1]; 250 ppm ABA, average of first 3 days after treatment (Table 4)
  Transpiration rate (% of control): 96.32 % of control
[1]; 250 ppm ABA, average of first 3 days after treatment (Table 9)
  Transpiration rate (% of control): 73 % of control
[1]; 500 ppm ABA, average of first 3 days after treatment
  Transpiration rate (% of control): 74 % of control
[1]; 1000 ppm ABA, average of first 3 days after treatment
  Transpiration rate (% of control): 68 % of control
[1]; calculated from linear regression of relative transpiration (3-day average) on log10 ABA concentration
  ABA concentrations to achieve 50% inhibition of transpiration: 3328 ppm
